Results on three compounds are retold here after patent US10806725B2, “Small molecule inhibitors of XBP1 splicing” (GEORGETOWN UNIVERSITY, priority 2011, dated 2020).

Common to all, as to format: cell-based
The subject of assay [1] is antiestrogen resistant LCC9 cells. Briefly: Crystal violet cell viability assay, antiestrogen resistant LCC9 cells. The note with it: 72 hours, normalized to vehicle-treated cells, compared with NPPTA. Here is the method: To measure cell viability, antiestrogen resistant LCC9 cells were plated in 96-well plastic tissue culture plates at a density of 5×10^3 cells/well. Twenty-four hours after plating, cells were treated with 3-naphthoyl-1,1,1-trifluoroacetone (NPPTA) and the analogs (i.e., Compound JS-011, Compound JS-012, Compound JS-013, Compound JS-014, Compound JS-015, Compound JS-020). After 72 hours, the cell culture media was removed and plates were stained with […] of a solution containing 0.5% crystal violet and 25% methanol, rinsed with deionized water, dried overnight, and resuspended in […] citrate buffer (0.1 M sodium citrate in 50% ethanol) to assess plating efficiency. Intensity of crystal violet staining, assessed at 570 nm and quantified using a Vmax Kinetic Microplate Reader and Softmax software (Molecular Devices Corp., Menlo Park, Calif.), was directly proportional to cell number. Data were normalized to vehicle-treated cells and are presented in FIG. 8 as the mean±SE from representative experiments.

Assay [2] relates to MCF7/LCC1 antiestrogen-responsive breast cancer cells. Briefly: Crystal violet cell proliferation assay, MCF7/LCC1 cells (combination with antiestrogens). The note with it: 72 h, >1.0 indicates synergistic interaction. On the procedure:
(§1) Compound Sd-6 was tested in a dose-response assay using different breast cancer cell lines, including MCF7/LCC1, MCF7/LCC9, T47D, and MCF-7. MCF7/LCC1 is an ERα-positive estrogen-independent, antiestrogen-responsive breast cancer cell line. MCF7/LCC9 is an ERα-positive estrogen-independent, antiestrogen-resistant breast cancer cell line. MCF- is an ERα-positive estrogen-dependent, antiestrogen-responsive breast cancer cell line. Cells were first plated in 96-well plastic tissue culture plates (10,000 cells per well). The cells were treated with 500 nM of Compound Sd-6 or the vehicle alone (DMSO) for 48 h. Following treatment, the cells were washed with PBS, stained with a crystal violet staining solution, and allowed to dry for 48-72 hrs. After drying, sodium citrate buffer was added to each well and allowed to incubate for 5 min at room temperature. The absorbance was measured at 450 nm using a microplate reader (Biorad; Hercules, Calif.).
(§2) Compound Sd-6 was tested in a dose-response assay using MCF7/LCC1 antiestrogen-responsive breast cancer cells and MCF7/LCC9 antiestrogen-resistant breast cancer cells. Cells were first plated in 96-well plastic tissue culture plates (10,000 cells per well). […] Following treatment, cell proliferation was determined using a crystal violet assay as described above. […]

For assay [3], the system named is MCF7/LCC9 antiestrogen-resistant breast cancer cells. Description: Crystal violet cell proliferation assay, MCF7/LCC9 cells (combination with antiestrogens). Conditions: 10 μM Compound Sd-6 combined with 100 nM Faslodex/ICI 182,780 (ICI), 72 h, >1.0 indicates synergistic interaction. On the procedure: as §1, §2
The subject of assay [4] is MCF 10A, a non-breast cancer cell line. Briefly: Crystal violet dose-response cell proliferation assay, MCF 10A control cells. The note with it: MCF 10A cells; 10 μM, 25 μM or 50 μM for 72 h. On the procedure:
as §1
Compound Sd-6 was tested in a dose-response assay using different breast cancer cell lines, including MCF7/LCC1, MCF7/LCC9, T47D, MCF-7, MCF-7/RR, LY2, and MDA-MB-231. MCF 10A, a non-breast cancer cell line, served as the control. The cells were first plated in 96-well plastic tissue culture plates (10,000 cells per well). […] Following treatment, cell proliferation was determined using a crystal violet assay as described in Example 1.

Turning to `O=C(CSc1nc(-c2cccnc2)n[nH]1)Nc1ccc(Oc2ccc(C(F)(F)F)cc2)cc1` [JS-020], the “Inhibition of LCC9 cells (cell viability, crystal violet)” value in assay [1] is “effective, and more potent than NPPTA”.

Turning to `O=C(CSc1nc(-c2cccnc2)n[nH]1)Nc1ccc(Oc2ccc(Cl)cc2)cc1` [JS-014], in assay [1], the “Inhibition of LCC9 cells (cell viability, crystal violet)” value is “effective, and more potent than NPPTA”.

In the case of `O=C(CSc1nc(-c2cccnc2)n[nH]1)Nc1ccc(Oc2ccccc2)cc1` [Compound Sd-6], the “RI value (Sexp/Sobs) for inhibition of cell proliferation” value in assay [2] (10 μM Compound Sd-6 combined with 100 nM Faslodex/ICI 182,780 (ICI)) was determined as 1.44; in assay [2] (10 μM Compound Sd-6 combined with 100 nM Tamoxifen (TAM)), 1.82; in assay [3], 1.27. The “Response of relative cell proliferation to compound” value in assay [4] is “did not respond”.
